Assay results published in patent US8168654B2 (priority 2003, dated 2012).
Where a name gives a salt, the structure may show the parent alone.

molecular target: T1, human muscarinic acetylcholine M3 receptor (Homo sapiens, UniProt P20309); experiment: biochemical; assay type: binding
T1 construct: expressed in transfected cells; host or cells: CHO cells, stably transfected; membranes
T1 sequence (P20309 whole entry): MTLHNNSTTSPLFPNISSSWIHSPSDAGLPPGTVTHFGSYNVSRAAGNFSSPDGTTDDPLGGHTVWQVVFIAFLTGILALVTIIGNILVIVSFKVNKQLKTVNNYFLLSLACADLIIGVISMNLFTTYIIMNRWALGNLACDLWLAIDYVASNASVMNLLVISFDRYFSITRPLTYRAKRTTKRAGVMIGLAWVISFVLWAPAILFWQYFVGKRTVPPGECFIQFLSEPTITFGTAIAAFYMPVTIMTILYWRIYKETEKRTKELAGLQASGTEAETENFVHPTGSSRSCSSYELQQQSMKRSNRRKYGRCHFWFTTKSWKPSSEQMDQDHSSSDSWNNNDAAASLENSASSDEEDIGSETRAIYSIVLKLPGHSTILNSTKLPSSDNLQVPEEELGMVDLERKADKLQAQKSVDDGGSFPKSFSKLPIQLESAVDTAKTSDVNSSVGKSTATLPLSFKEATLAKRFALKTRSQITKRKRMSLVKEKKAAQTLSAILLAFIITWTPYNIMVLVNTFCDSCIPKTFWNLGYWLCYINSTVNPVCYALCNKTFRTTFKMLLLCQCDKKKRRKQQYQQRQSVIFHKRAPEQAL

**Q.** How did the Ki turn out when `O=C(NCC[N+]12CCC(CC1)[C@@H](OC(=O)C(O)(c1ccccc1)c1ccccc1)C2)c1cnccn1` [Example 138, (R)-3-(2-Hydroxy-2,2-diphenyl-acetoxy)-1-(2-[{pyrazine-2-carbonyl)-amino]-ethyl}-1-azonia-bicyclo[2.2.2]octane trifluoroacetate] was run?
**A.** 2.2 nM

**Q.** How did the Ki turn out when `O=C(C[N+]12CCC(CC1)[C@@H](OC(=O)C(O)(c1cccs1)c1cccs1)C2)Nc1ccncn1` [Example 244, (R)-3-(2-Hydroxy-2,2-di-thiophen-2-yl-acetoxy)-1-(pyrimidin-4-ylcarbamoylmethyl)-1-azonia-bicyclo[2.2.2]octane bromide] was run?
**A.** 0.3 nM

**Q.** For `O=C(C[N+]12CCC(CC1)[C@@H](OC(=O)C(O)(c1cccs1)c1cccs1)C2)Nc1cnccn1` [Example 159, (R)-3-(2-Hydroxy-2,2-di-thiophen-2-yl-acetoxy)-1-(pyrazin-2-ylcarbamoylmethyl)-1-azonia-bicyclo[2.2.2]octane bromide], which Ki is on record?
**A.** 0.7 nM

**Q.** With `O=C(Cc1ccccc1)NCCC[N+]12CCC(CC1)[C@@H](OC(=O)C(O)(c1ccccc1)c1ccccc1)C2` [Example 34, (R)-3-(2-Hydroxy-2,2-diphenyl-acetoxy)-1-(3-phenylacetylamino-propyl)-1-azonia-bicyclo[2.2.2]octane trifluoroacetate] as the molecule, how does the Ki read?
**A.** 2.3 nM

**Q.** `O=C(C[N+]12CCC(CC1)[C@@H](OC(=O)C(O)(c1ccccc1)c1ccccc1)C2)Nc1ccon1` [Example 242, (R)-3-(2-Hydroxy-2,2-diphenyl-acetoxy)-1-(isoxazol-3ylcarbamoylmethyl)-1-azonia-bicyclo[2.2.2]octane bromide] was tested. Which Ki did it give?
**A.** 0.3 nM

**Q.** For `O=C(NCC[N+]12CCC(CC1)[C@@H](OC(=O)C(O)(c1ccccc1)c1ccccc1)C2)C1(O)CC1` [Example 221, (R)-1-[2-[(1-Hydroxy-cyclo-propanecarbonyl)-amino]-ethyl]-3-(2-hydroxy-2,2-diphenyl-acetoxy)-1-azonia-bicyclo[2.2.2]-octane hexafluorophosphate], which Ki is on record?
**A.** 1.3 nM

**Q.** With `O=C(C[N+]12CCC(CC1)[C@@H](OC(=O)C(O)(c1cccs1)c1cccs1)C2)Nc1ccccc1` [Example 76, (R)-3-(2-Hydroxy-2,2-di-thiophen-2-yl-acetoxy)-1-phenylcarbamoylmethyl-1-azonia-bicyclo[2.2.2]octane trifluoroacetate] as the molecule, how does the Ki read?
**A.** 1.1 nM

**Q.** `O=C(C[N+]12CCC(CC1)[C@@H](OC(=O)C(O)(c1ccccc1)c1ccccc1)C2)Nc1ccccc1` [Example 52, (R)-3-(2-Hydroxy-2,2-diphenyl-acetoxy)-1-phenylcarbamoylmethyl-1-azonia-bicyclo[2.2.2]octane] was tested. Which Ki did it give?
**A.** 1.9 nM

**Q.** How did the Ki turn out when `O=C(C[N+]12CCC(CC1)[C@@H](OC(=O)C(O)(c1ccccc1)c1ccccc1)C2)NCCc1cccs1` [Example 96, (R)-3-(2-Hydroxy-2,2-diphenyl-acetoxy)-1-[(2-thiophen-2-yl-ethylcarbamoyl)-methyl]-1-azonia-bicyclo[2.2.2]octane trifluoroacetate] was run?
**A.** 4.6 nM
